Data on two molecules can be found in patent publication US20250034139A1, “AMINE COMPOUNDS HAVING ANTI-INFLAMMATORY, ANTIFUNGAL, ANTIPARASITIC, AND ANTICANCER ACTIVITY” (PHARMA CINQ, LLC, priority 2013, published 2025).

SMILES strings stand for the structures. In brackets after ≈: the same amount, converted by molar mass. Read-outs that look alike come from different tables or passages of the source.

Assay [1] relates to THP-1 cells. Briefly: Example C: compound screen, viable THP-1 cell count after 5 hours +/- LPS. In kind it is cell-based, Human. Particulars: for ability to inactivate pro-inflammatory THP-1 cells, in words (relative to benchmark AC): LPS-treated THP-1 cells.
For assay [2], the system named is THP-1 cells. Put plainly: Example D: LPS-triggered THP-1 cell death assay, acute/5-hour and chronic/48-hour. The class given is cell-based, Human. Particulars: 0.1 μM, 5-hour and 48-hour time points. The method, then:
Compounds of the invention were tested at 0.1 μM versus AC in the LPS-triggered THP-1 cell death assay. Both acute/5-hour and chronic/48-hour phases of cell death were assessed. Compounds were screened in batches with DMSO as the negative control and AC as the high activity control.

The next assay concerns Trichophyton rubrum. Briefly: Example J: Trichophyton rubrum growth inhibition, scoring by eye. The class given is cell-based. Particulars: Trichophyton rubrum, 144 h; 6 days at 30° C., tested 6 to 40 μM; read-out: MIC, μM (maximum inhibition concentration, scoring by eye). The method, boiled down: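 Filtered T. rubrum suspension from PDA plates (grown 4 days, 30 °C) treated with diluted compounds in triplicate, incubated 6 days at 30 °C. Plates imaged; MIC scored by eye.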

The next assay has as its system Candida glabrata strains. Briefly: Example N: MIC and MFC (CLSI) against Candida glabrata. The class given is cell-based. Particulars: for MIC50 / MIC / MFC: Nakaseomyces glabratus; for MIC: read-out: MIC 100%; for MFC: range over Candida glabrata strains, in 48 hr. The method, then: (§1) The objective of this study was to determine the antifungal activity of eight experimental compounds against a representative panel of fungal isolates, including Candida albicans, C. glabrata, Cryptococcus neoformans, Trichophyton rubrum, Aspergillus fumigatus, and Rhizopus spp. Antifungal activity was measured by minimum inhibitory concentration (MIC) and minimum fungicidal concentration (MFC).
(§2) Three recent clinical strains of each species, taken from the culture collection at the Center for Medical Mycology, Case Western University, were tested.
(§3) Compounds in powder form were dissolved in DMSO. Serial dilutions of each compound were then prepared in RPMI-1640 in a range of […].
(§4) MIC testing was performed according to the CLSI M27-A3 and M38-A2 standards for the susceptibility testing of yeasts and filamentous fungi, respectively (1, 2). Test isolates were subcultured from frozen slants onto potato dextrose agar plates (Trichophyton rubrum was subcultured onto oatmeal plates for conidia production) and checked for purity. Inocula were then prepared in RPMI-1640 (YNB for Cryptococcus) to a concentration of 0.5-2.5×10^3 colony-forming units (CFU)/ml or 0.4-5×10^4 conidia/ml for yeast and filamentous fungi, respectively.
(§5) MFC determinations were performed according to the modifications previously described by Canton et al. and Ghannoum and Isham. (3, 4) Specifically, the total contents of each clear well from the MIC assay were subcultured onto potato dextrose agar. To avoid antifungal carryover, the aliquots were allowed to soak into the agar and then were streaked for isolation once dry, thus removing the cells from the drug source.

Assay [3] deals with Cryptococcus neoformans strains. Briefly: Example N: MIC and MFC (CLSI) against Cryptococcus neoformans. Particulars: Cryptococcus neoformans, three clinical strains; for MIC: read-out: MIC 100%, Range, incubated for 72 hrs. The class given is cell-based. The method, then: as §1, §2, §3, §4, §5
The subject of assay [4] is Aspergillus fumigatus strains. Put plainly: Example N: MIC and MFC (CLSI) against Aspergillus fumigatus. The class given is cell-based. Particulars: for cidal activity (MFC within 4 dilutions of the MIC), in words: 3 strains; for MIC50 / MIC: Aspergillus fumigatus; for MIC: read-out: MIC 100%. As to the method:
as §1, §2, §3, §4, §5

Assay [5] concerns 4T1 murine breast cancer cells. Briefly: Example S: in vitro anticancer screen, 4T1 cells, Wst1. In kind it is cell-based, mouse. Particulars: Mus musculus, 4T1, 18 h, 18 hr, Wst1. In outline:
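Read-out is Wst1 absorbance (450 nm, reference 630 nm) after roughly 2 hr dye incubation, giving percent cell survival versus vehicle. Before that, compounds at 1 μM or 5 μM were applied for 18 hr to 4T1 cells plated at 1×10^4 per well.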

In assay [6] the test system is PC3 human prostate cancer cells. Briefly: Example S: in vitro anticancer screen, PC-3 cells, Wst1. Particulars: Homo sapiens, PC-3, approximately 20 hours, Wst1, read-out: PC-3, percent of cancer cell survival relative to vehicle treated cells. The class given is cell-based. In outline:
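Values give percent survival relative to vehicle, read by Wst1 absorbance (450/630 nm) after 2 h dye incubation, in triplicate. Cells were seeded at 2×10^4/well and treated about 20 h with compound at 0.4, 0.5 or 2.5 μM, depending on compound.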

A word on the MIC50: it is the lowest concentration that inhibits either 50% of growth or 50% of the strains tested, depending on the study. Lower therefore signals greater potency. Consider `CCCCOCCCCCCCCCCNc1ccnc2ccccc12` [AM, N-(10-Butoxydecyl)quinolin-4-amine], for which the “Reduction in viable THP-1 cell count (percent change) from 0 hours, Mean ± SE” value was −5.57 ± 2.67% in the assay on THP-1 cells [1] (Compound (0.1 μM), No LPS); −19.80 ± 1.96% in the assay on THP-1 cells [1] (Compound (0.1 μM), Plus LPS); −8.47 ± 3.31% with THP-1 cells [1] (Compound (1.0 μM), No LPS); −44.05 ± 1.38% in the assay with THP-1 cells [1] (Compound (1.0 μM), Plus LPS). Further, the “ability to inactivate pro-inflammatory THP-1 cells, in words (relative to benchmark AC)” value in the assay on THP-1 cells [1] was “higher activity than the active benchmark compound AC”. The “activity relative to AC in the LPS-triggered THP-1 cell death assay, in words” value in the assay with THP-1 cells [2] was “more active than AC at the chronic/48-hour time point”. For the same molecule, the MIC is 12 µM (≈ 4.28 µg/mL) with Trichophyton rubrum; 2 to 4 µg/mL (≈ 5.61 to 11.2 µM) in the assay on Candida glabrata strains (24 h); 2 to 4 µg/mL (≈ 5.61 to 11.2 µM) with Candida glabrata strains (48 h); 2 to 4 µg/mL (≈ 5.61 to 11.2 µM) in assay [3]; 1 to 2 µg/mL (≈ 2.8 to 5.61 µM) in assay [4] (24 h); 4 µg/mL (≈ 11.2 µM) in assay [4] (48 h). Moreover, the MIC50 against Candida glabrata strains (24 h) was in the range of 1 to 2 µg/mL (≈ 2.8 to 5.61 µM); against Candida glabrata strains (48 h), 2 to 4 µg/mL (≈ 5.61 to 11.2 µM); in assay [4] (24 h) it was 0.5 to 1 µg/mL (≈ 1.4 to 2.8 µM); in assay [4] (48 h), 2 to 4 µg/mL (≈ 5.61 to 11.2 µM). The MFC in the assay with Candida glabrata strains is 4 to 8 µg/mL (≈ 11.2 to 22.4 µM); in assay [3], 8 µg/mL (≈ 22.4 µM); in assay [4] (range over Aspergillus fumigatus strains, in 48 hr), 4 to 32 µg/mL (≈ 11.2 to 89.7 µM). For the same molecule, the “cidal activity (MFC within 4 dilutions of the MIC), in words” value in assay [4] is “cidal against one of the A. fumigatus strains (MRL 28397)”. The viability at 1 µM in assay [5] (1 μM, read-out: 4T1 1 μM, percent of cancer cell survival relative to vehicle treated cells) stood at 24.3%. In addition, the viability at 5 µM in assay [5] (5 μM, read-out: 4T1 5 μM, percent of cancer cell survival relative to vehicle treated cells) came out at 29.5%. In assay [6] (0.4 μM), the viability at 0.4 µM stood at 58.5%.

As to `CCCCCCCCCCNc1ccnc2ccccc12` [Compound AG, N-(Decyl)quinolin-4-amine], the “Reduction in viable THP-1 cell count (percent change) from 0 hours, Mean ± SE” value is −6.24 ± 0.69% in the assay on THP-1 cells [1] (Compound (0.1 μM), No LPS); −21.28 ± 1.52% with THP-1 cells [1] (Compound (0.1 μM), Plus LPS); −4.02 ± 2.83% in the assay with THP-1 cells [1] (Compound (1.0 μM), No LPS); −38.58 ± 0.73% in the assay on THP-1 cells [1] (Compound (1.0 μM), Plus LPS). Besides, in the assay on THP-1 cells [1], the “ability to inactivate pro-inflammatory THP-1 cells, in words (relative to benchmark AC)” value is given as “higher activity than the active benchmark compound AC”. In addition, the “activity relative to AC in the LPS-triggered THP-1 cell death assay, in words” value in the assay on THP-1 cells [2] was “more active than AC at the chronic/48-hour time point”. For the same molecule, the MIC in the assay on Trichophyton rubrum was 18 µM (≈ 5.12 µg/mL); in the assay with Candida glabrata strains (24 h), 0.5 to 2 µg/mL (≈ 1.76 to 7.03 µM); in the assay on Candida glabrata strains (48 h), 0.5 to 2 µg/mL (≈ 1.76 to 7.03 µM); in assay [3], 4 µg/mL (≈ 14.1 µM); in assay [4] (24 h), 1 µg/mL (≈ 3.52 µM); in assay [4] (48 h), 1 to 2 µg/mL (≈ 3.52 to 7.03 µM). In addition, the entries for the “cidal activity (MFC within 4 dilutions of the MIC), in words” value (with Candida glabrata strains (3 strains); in assay [4]) were “cidal against all of the C. glabrata strains tested” and “cidal against one of the A. fumigatus strains (MRL 28397)”, respectively. Also, the MIC50 in the assay with Candida glabrata strains (24 h) is 0.25 to 1 µg/mL (≈ 0.879 to 3.52 µM); against Candida glabrata strains (48 h), 0.5 to 2 µg/mL (≈ 1.76 to 7.03 µM); in assay [4] (24 h), 0.5 to 1 µg/mL (≈ 1.76 to 3.52 µM); in assay [4] (48 h), 1 to 2 µg/mL (≈ 3.52 to 7.03 µM). For the same molecule, the values for the MFC (in the assay on Candida glabrata strains; in assay [3]) were 4 µg/mL (≈ 14.1 µM) and 8 to 16 µg/mL (≈ 28.1 to 56.2 µM), respectively. Further, the viability at 2.5 µM in assay [6] (2.5 μM) turned out to be 18.4%.
